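These data come from cells grown in 96-well plates and exposed to compound for 48 hours at five concentrations. TGI denotes the concentration required for complete inhibition of growth.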
Tests used:
Assay in all cases: NCI anticancer screen, dose series, 48 h
A498 renal = system: A498 renal
786-0 renal = system: 786-0 renal
CAKI-1 renal = system: CAKI-1 renal
UO-31 renal = system: UO-31 renal
HL-60(TB) leukemia = system: HL-60(TB) leukemia
NCI-H522 lung = system: NCI-H522 lung
SK-OV-3 ovarian = system: SK-OV-3 ovarian
SK-MEL-2 melanoma = system: SK-MEL-2 melanoma
PC-3 prostate = system: PC-3 prostate
SNB-19 CNS = system: SNB-19 CNS
MDA-N = system: MDA-N
SR leukemia = system: SR leukemia
U251 CNS = system: U251 CNS
SN12C renal = system: SN12C renal
NCI-H23 lung = system: NCI-H23 lung
SF-268 CNS = system: SF-268 CNS
CCRF-CEM leukemia = system: CCRF-CEM leukemia
MDA-MB-435 = system: MDA-MB-435
LOX IMVI melanoma = system: LOX IMVI melanoma
SF-295 CNS = system: SF-295 CNS
IGROV1 ovarian = system: IGROV1 ovarian
DU-145 prostate = system: DU-145 prostate
SK-MEL-28 melanoma = system: SK-MEL-28 melanoma
SK-MEL-5 melanoma = system: SK-MEL-5 melanoma
TK-10 renal = system: TK-10 renal
OVCAR-4 ovarian = system: OVCAR-4 ovarian
OVCAR-5 ovarian = system: OVCAR-5 ovarian
M14 melanoma = system: M14 melanoma
RPMI-8226 leukemia = system: RPMI-8226 leukemia
HS 578T breast = system: HS 578T breast
HCT-15 colon = system: HCT-15 colon
HCT-116 colon = system: HCT-116 colon
NCI/ADR-RES ovarian = system: NCI/ADR-RES ovarian
OVCAR-8 ovarian = system: OVCAR-8 ovarian
HCC-2998 colon = system: HCC-2998 colon
KM12 colon = system: KM12 colon
EKVX NSCLC = system: EKVX NSCLC
COLO 205 colon = system: COLO 205 colon
SNB-75 CNS = system: SNB-75 CNS
K-562 leukemia = system: K-562 leukemia
BT-549 breast = system: BT-549 breast
T-47D breast = system: T-47D breast
MOLT-4 leukemia = system: MOLT-4 leukemia
RXF 393 renal = system: RXF 393 renal
NCI-H460 lung = system: NCI-H460 lung
A549 NSCLC = system: A549 NSCLC
HOP-62 NSCLC = system: HOP-62 NSCLC
MCF7 breast = system: MCF7 breast
UACC-257 melanoma = system: UACC-257 melanoma
UACC-62 melanoma = system: UACC-62 melanoma
NCI-H226 lung = system: NCI-H226 lung
OVCAR-3 ovarian = system: OVCAR-3 ovarian
HT29 colon = system: HT29 colon
SW-620 colon = system: SW-620 colon
ACHN renal = system: ACHN renal
MDA-MB-231 breast = system: MDA-MB-231 breast
MALME-3M melanoma = system: MALME-3M melanoma

**Q.** How did the TGI (A498 renal) turn out when `O=[N+]([O-])c1ccccc1N=Nc1c(O)[nH]c2cccc(C(F)(F)F)c12` was run?
**A.** > 100 µM

**Q.** What about the TGI (786-0 renal) of the same compound?
**A.** 60 µM

**Q.** And the TGI (CAKI-1 renal)?
**A.** > 100 µM

**Q.** What about the TGI (UO-31 renal) of the same compound?
**A.** > 100 µM

**Q.** What about the TGI (HL-60(TB) leukemia) of the same compound?
**A.** > 100 µM

**Q.** What about the TGI (NCI-H522 lung) of the same compound?
**A.** 69.3 µM

**Q.** What about the TGI (SK-OV-3 ovarian) of the same compound?
**A.** > 100 µM

**Q.** And the TGI (SK-MEL-2 melanoma)?
**A.** > 100 µM

**Q.** And the TGI (PC-3 prostate)?
**A.** > 100 µM

**Q.** What about the TGI (SNB-19 CNS) of the same compound?
**A.** > 100 µM

**Q.** And the TGI (MDA-N)?
**A.** 33.3 µM

**Q.** What about the TGI (SR leukemia) of the same compound?
**A.** 15.7 µM

**Q.** What about the TGI (U251 CNS) of the same compound?
**A.** > 100 µM

**Q.** And the TGI (SN12C renal)?
**A.** 73.8 µM

**Q.** What about the TGI (NCI-H23 lung) of the same compound?
**A.** 88 µM

**Q.** What about the TGI (SF-268 CNS) of the same compound?
**A.** > 100 µM

**Q.** What about the TGI (CCRF-CEM leukemia) of the same compound?
**A.** > 100 µM

**Q.** And the TGI (MDA-MB-435)?
**A.** 40.7 µM

**Q.** What about the TGI (LOX IMVI melanoma) of the same compound?
**A.** > 100 µM

**Q.** And the TGI (SF-295 CNS)?
**A.** > 100 µM

**Q.** What about the TGI (IGROV1 ovarian) of the same compound?
**A.** 57.7 µM

**Q.** What about the TGI (DU-145 prostate) of the same compound?
**A.** > 100 µM

**Q.** What about the TGI (SK-MEL-28 melanoma) of the same compound?
**A.** > 100 µM

**Q.** What about the TGI (SK-MEL-5 melanoma) of the same compound?
**A.** > 100 µM

**Q.** What about the TGI (TK-10 renal) of the same compound?
**A.** > 100 µM

**Q.** What about the TGI (OVCAR-4 ovarian) of the same compound?
**A.** 52 µM

**Q.** What about the TGI (OVCAR-5 ovarian) of the same compound?
**A.** > 100 µM

**Q.** What about the TGI (M14 melanoma) of the same compound?
**A.** > 100 µM

**Q.** What about the TGI (RPMI-8226 leukemia) of the same compound?
**A.** > 100 µM

**Q.** And the TGI (HS 578T breast)?
**A.** > 100 µM

**Q.** And the TGI (HCT-15 colon)?
**A.** > 100 µM

**Q.** And the TGI (HCT-116 colon)?
**A.** > 100 µM

**Q.** What about the TGI (NCI/ADR-RES ovarian) of the same compound?
**A.** > 100 µM

**Q.** What about the TGI (OVCAR-8 ovarian) of the same compound?
**A.** > 100 µM

**Q.** What about the TGI (HCC-2998 colon) of the same compound?
**A.** > 100 µM

**Q.** What about the TGI (KM12 colon) of the same compound?
**A.** > 100 µM

**Q.** And the TGI (EKVX NSCLC)?
**A.** > 100 µM

**Q.** What about the TGI (COLO 205 colon) of the same compound?
**A.** > 100 µM

**Q.** And the TGI (SNB-75 CNS)?
**A.** > 100 µM

**Q.** And the TGI (K-562 leukemia)?
**A.** > 100 µM

**Q.** And the TGI (BT-549 breast)?
**A.** > 100 µM

**Q.** And the TGI (T-47D breast)?
**A.** > 100 µM

**Q.** And the TGI (MOLT-4 leukemia)?
**A.** > 100 µM

**Q.** What about the TGI (RXF 393 renal) of the same compound?
**A.** > 100 µM

**Q.** What about the TGI (NCI-H460 lung) of the same compound?
**A.** > 100 µM

**Q.** What about the TGI (A549 NSCLC) of the same compound?
**A.** > 100 µM

**Q.** What about the TGI (HOP-62 NSCLC) of the same compound?
**A.** 82.8 µM

**Q.** And the TGI (MCF7 breast)?
**A.** > 100 µM

**Q.** What about the TGI (UACC-257 melanoma) of the same compound?
**A.** 34.5 µM

**Q.** What about the TGI (UACC-62 melanoma) of the same compound?
**A.** > 100 µM

**Q.** What about the TGI (NCI-H226 lung) of the same compound?
**A.** > 100 µM

**Q.** And the TGI (OVCAR-3 ovarian)?
**A.** 62.2 µM

**Q.** And the TGI (HT29 colon)?
**A.** > 100 µM

**Q.** What about the TGI (SW-620 colon) of the same compound?
**A.** > 100 µM

**Q.** What about the TGI (ACHN renal) of the same compound?
**A.** 40.1 µM

**Q.** And the TGI (MDA-MB-231 breast)?
**A.** 91.3 µM

**Q.** `S=C1c2ccc(Cl)cc2-n2cnnc2C2CSCN12` (stereo unspecified) was tested. Which TGI (A498 renal) did it give?
**A.** > 100 µM

**Q.** And the TGI (786-0 renal)?
**A.** > 100 µM

**Q.** What about the TGI (CAKI-1 renal) of the same compound?
**A.** > 100 µM

**Q.** And the TGI (UO-31 renal)?
**A.** > 100 µM

**Q.** What about the TGI (MALME-3M melanoma) of the same compound?
**A.** > 100 µM

**Q.** What about the TGI (NCI-H522 lung) of the same compound?
**A.** > 100 µM

**Q.** And the TGI (SK-OV-3 ovarian)?
**A.** > 100 µM

**Q.** And the TGI (SK-MEL-2 melanoma)?
**A.** > 100 µM

**Q.** And the TGI (PC-3 prostate)?
**A.** > 100 µM

**Q.** What about the TGI (SNB-19 CNS) of the same compound?
**A.** > 100 µM

**Q.** And the TGI (MDA-N)?
**A.** > 100 µM

**Q.** What about the TGI (SR leukemia) of the same compound?
**A.** > 100 µM

**Q.** And the TGI (U251 CNS)?
**A.** > 100 µM

**Q.** What about the TGI (SN12C renal) of the same compound?
**A.** > 100 µM

**Q.** What about the TGI (SF-268 CNS) of the same compound?
**A.** > 100 µM

**Q.** And the TGI (CCRF-CEM leukemia)?
**A.** > 100 µM

**Q.** What about the TGI (MDA-MB-435) of the same compound?
**A.** > 100 µM

**Q.** What about the TGI (LOX IMVI melanoma) of the same compound?
**A.** > 100 µM

**Q.** What about the TGI (SF-295 CNS) of the same compound?
**A.** > 100 µM

**Q.** And the TGI (IGROV1 ovarian)?
**A.** > 100 µM

**Q.** What about the TGI (DU-145 prostate) of the same compound?
**A.** > 100 µM

**Q.** And the TGI (SK-MEL-28 melanoma)?
**A.** > 100 µM

**Q.** What about the TGI (SK-MEL-5 melanoma) of the same compound?
**A.** > 100 µM

**Q.** And the TGI (TK-10 renal)?
**A.** > 100 µM

**Q.** What about the TGI (OVCAR-4 ovarian) of the same compound?
**A.** > 100 µM

**Q.** What about the TGI (OVCAR-5 ovarian) of the same compound?
**A.** > 100 µM

**Q.** And the TGI (M14 melanoma)?
**A.** > 100 µM

**Q.** And the TGI (RPMI-8226 leukemia)?
**A.** > 100 µM

**Q.** And the TGI (HS 578T breast)?
**A.** > 100 µM

**Q.** And the TGI (HCT-15 colon)?
**A.** > 100 µM

**Q.** And the TGI (HCT-116 colon)?
**A.** > 100 µM

**Q.** What about the TGI (NCI/ADR-RES ovarian) of the same compound?
**A.** > 100 µM

**Q.** And the TGI (OVCAR-8 ovarian)?
**A.** > 100 µM

**Q.** What about the TGI (HCC-2998 colon) of the same compound?
**A.** > 100 µM

**Q.** What about the TGI (KM12 colon) of the same compound?
**A.** > 100 µM

**Q.** What about the TGI (EKVX NSCLC) of the same compound?
**A.** > 100 µM

**Q.** What about the TGI (COLO 205 colon) of the same compound?
**A.** > 100 µM

**Q.** And the TGI (SNB-75 CNS)?
**A.** > 100 µM

**Q.** What about the TGI (K-562 leukemia) of the same compound?
**A.** 27.7 µM

**Q.** And the TGI (BT-549 breast)?
**A.** > 100 µM

**Q.** What about the TGI (T-47D breast) of the same compound?
**A.** > 100 µM

**Q.** What about the TGI (MOLT-4 leukemia) of the same compound?
**A.** > 100 µM

**Q.** What about the TGI (RXF 393 renal) of the same compound?
**A.** > 100 µM

**Q.** What about the TGI (NCI-H460 lung) of the same compound?
**A.** > 100 µM

**Q.** And the TGI (A549 NSCLC)?
**A.** > 100 µM

**Q.** What about the TGI (HOP-62 NSCLC) of the same compound?
**A.** > 100 µM

**Q.** And the TGI (MCF7 breast)?
**A.** > 100 µM

**Q.** And the TGI (UACC-257 melanoma)?
**A.** > 100 µM

**Q.** What about the TGI (UACC-62 melanoma) of the same compound?
**A.** > 100 µM

**Q.** And the TGI (NCI-H226 lung)?
**A.** > 100 µM

**Q.** And the TGI (OVCAR-3 ovarian)?
**A.** > 100 µM

**Q.** And the TGI (HT29 colon)?
**A.** > 100 µM

**Q.** And the TGI (SW-620 colon)?
**A.** > 100 µM

**Q.** What about the TGI (ACHN renal) of the same compound?
**A.** > 100 µM

**Q.** And the TGI (MDA-MB-231 breast)?
**A.** > 100 µM

— PubChem BioAssay (NCI)
